This note sets out measurements from PMC9936538, “Structure–Activity Relationship of N-Ethyl-Hexedrone Analogues: Role of the α-Carbon Side-Chain Length in the Mechanism of Action, Cytotoxicity, and Behavioral Effects in Mice” (ACS Chemical Neuroscience, 2023).

A value given as a limit tells only on which side of the number the result lay.

One data set has as its target T1, hSERT (Homo sapiens, UniProt P31645).
T1 construct: expressed in transfected cells; host or cells: HEK293
The data set can be described thus: Monoamine uptake inhibition, [3H]5-HT uptake at hSERT in transfected HEK293 cells. The format is cell-based. How it is done: Human embryonic kidney cells (HEK293) stably transfected with the human DAT and SERT were used for both the uptake inhibition and transporter binding assays.[6] Cells were cultured in DMEM supplemented with heat-inactivated 10% fetal bovine serum (FBS), […], and 100 U/mL penicillin at 37 °C in a 5% CO2 humidified atmosphere. Geneticin (G418; 50 μg/mL) was added to maintain the selection process. Upon approximately 80% confluence, cells were washed with 5 mL of phosphate-buffered saline (PBS) and 1 mL of trypsin/EDTA was added. After 3 min, 9 mL of DMEM was added to stop cell trypsinization. If necessary, centrifugation was performed to pellet the cells. Cells were then resuspended, counted, and seeded onto poly-D-lysine coated (24 h/prior to the experiment) 96-well plates at a density of 0.36 million cells per well for the uptake inhibition assays.
Assays were performed as previously described.[8] On the test day, the medium was removed from the cell culture 96-well plates and immediately replaced with 200 μL of Krebs-HEPES-buffer (KHB; 10 mM HEPES, 120 mM NaCl, 3 mM KCl, 2 mM CaCl2·2H2O, 2 mM MgCl2·6H2O supplemented with 20 mM D-glucose; pH 7.3). To ensure equilibrated conditions, cells were incubated with different concentrations of the drugs in KHB at a final volume of 50 μL/well for 5 min (preincubation). The preincubation solution was removed, and cells were incubated with the tritiated compounds, 0.02 μM [^3H]MPP^+ for hDAT and 0.1 μM [^3H]5-HT for hSERT, together with various concentrations of the test drugs in KHB. The uptake incubation times were 3 min for hDAT and 1 min for hSERT. The reaction was stopped by rapid removal of the incubation solution and washout with ice-cold KHB. Cells were lysed with 1% sodium dodecyl sulfate, and lysates were subsequently transferred to vials containing scintillation fluid. Radioactivity was quantified with a beta-scintillation counter (PerkinElmer, Waltham, MA, USA). The uptake in the absence of the test drugs was normalized to 100%, and the uptake in the presence of various concentrations of cathinones was expressed as a percentage thereof. […] Four independent experiments carried out on triplicates were performed.
For in vitro assays, data were normalized with 100% defined as the mean of the technical replicates in the control group and expressed as mean ± SEM. Nonlinear regression was used to fit the different competition curves. Data were plotted and best fitted to a sigmoidal dose–response curve from which an IC50 or LC50 value was obtained. Transporter ratios were calculated as (1/DAT IC50: 1/SERT IC50). […] The Cheng–Prusoff equation was used to calculate Ki (affinity): Ki = EC50/(1 + [radioligand concentration/Kd]).[65] The sample size for behavioral experiments was determined using GPower software. One-way or two-way ANOVA, and subsequent Tukey’s posthoc test, conducted only if F was significant, was used to determine the effects of cathinones on cytotoxicity, HLA, OF, and CPP experiments. The α error probability was set at 0.05 (p < 0.05). The exact size group for the behavioral experiments is shown in the corresponding figure legends. All statistic calculations were carried out using GraphPad Prism (GraphPad software, San Diego, CA, USA).

Data set [1] is described as follows: Cytotoxicity in NGF-differentiated PC12 cells, WST-8 cell viability assay. It is filed as cell-based. Conditions: rat, WST-8, 24 h exposure, mean ± SEM of 3–4 experiments, read-out: LC50 (approximated), cell viability. How it is done:
Pheochromocytoma cells (PC12) cells were cultured in collagen-coated dishes in DMEM supplemented with heat-inactivated 5% FBS, 10% horse serum, 10 mM HEPES, 2 mM glutamine, 25 UI/mL penicillin, and 25 μg/mL streptomycin (maintenance medium) and grown at 37 °C in a humidified 5% CO2 atmosphere. Cell differentiation was performed as described[54] with minor modifications. In brief, cells were seeded (250.000 cells/well) onto 96-well plates in the maintenance medium, and after 24 h, the medium was changed to a differentiation medium containing 50 ng/mL NGF. After 24 h, neurite outgrowth was already apparent.
Treatments with different concentrations of the drug in DMEM were performed 48 h after cell differentiation. 10 μL of the tested drug was added per well, in triplicate, and cells were incubated for 24 h at 37 °C in a humidified 5% CO2 atmosphere. Thereafter, the medium was removed and immediately replaced with a maintenance medium. 10 μL of the CCK-8 Cell Counting Kit, based on 2-(2-methoxy-4-nitrophenyl)-3-(4-nitrophenyl)-5-(2,4-disulfophenyl)-2H-tetrazolium, monosodium salt (WST-8), was added per well and was incubated for 2 h at 37 °C in a humidified 5% CO2 atmosphere. This method has been defined as a good alternative to the 3-(4,5-dimethylthiazol-2-yl)-2,5-diphenyltetrazoliumbromide (MTT) assay.[63] Optical density was measured at 450 nm, using a microplate reader.
For in vitro assays, data were normalized with 100% defined as the mean of the technical replicates in the control group and expressed as mean ± SEM. Nonlinear regression was used to fit the different competition curves. Data were plotted and best fitted to a sigmoidal dose–response curve from which an IC50 or LC50 value was obtained. Transporter ratios were calculated as (1/DAT IC50: 1/SERT IC50). Although IC50 values at inhibiting 5-HT uptake for some compounds tested are expressed as >100 μM for clarity purposes, DAT/SERT ratios were calculated with the original raw data. The Cheng–Prusoff equation was used to calculate Ki (affinity): Ki = EC50/(1 + [radioligand concentration/Kd]).[65] The sample size for behavioral experiments was determined using GPower software. One-way or two-way ANOVA, and subsequent Tukey’s posthoc test, conducted only if F was significant, was used to determine the effects of cathinones on cytotoxicity, HLA, OF, and CPP experiments. The α error probability was set at 0.05 (p < 0.05). The exact size group for the behavioral experiments is shown in the corresponding figure legends. All statistic calculations were carried out using GraphPad Prism (GraphPad software, San Diego, CA, USA).

In a further data set the test system is Swiss CD-1 mice. The data set can be described thus: Horizontal locomotor activity (HLA) in mice. The format is in vivo. Conditions: for HLA (total distance traveled in 60 min) vs saline / duration of the significant increase in locomotor activity: 3 mg/kg i.p.; for duration of the significant increase in locomotor activity: 5 min blocks; for shape of the dose response of HLA: 3, 10, 30 mg/kg i.p., ceiling at highest dose 30 mg/kg. The procedure: Male Swiss CD-1 mice (Janvier, Le Genest, France) weighing 30–35 g (6–8 weeks old), housed in temperature-controlled conditions (22 ± 1 °C) under a 12 h light/dark cycle and with free access to food and drinking water (standard laboratory diet, Panlab SL, Barcelona, Spain), were randomly assigned to an experimental group. Efforts were made to minimize animal use and suffering.
In the habituation phase, which lasted for two consecutive days, mice received an intraperitoneal (i.p.) saline injection and were immediately placed into a black Plexiglass OF arena (25 × 25 × 40 cm) under low-light conditions and white noise for 30 min. On the test day, the HLA was measured as described.[8] […] HLA was video-monitored for 1 h and a specific tracking software (Smart 3.0 Panlab, Barcelona, Spain) was used to measure their total traveled distance (in cm). The doses were chosen according to the psychostimulant effect induced by structurally related synthetic cathinones published in previous studies by our research group.[8]

T1 sequence (P31645 whole entry): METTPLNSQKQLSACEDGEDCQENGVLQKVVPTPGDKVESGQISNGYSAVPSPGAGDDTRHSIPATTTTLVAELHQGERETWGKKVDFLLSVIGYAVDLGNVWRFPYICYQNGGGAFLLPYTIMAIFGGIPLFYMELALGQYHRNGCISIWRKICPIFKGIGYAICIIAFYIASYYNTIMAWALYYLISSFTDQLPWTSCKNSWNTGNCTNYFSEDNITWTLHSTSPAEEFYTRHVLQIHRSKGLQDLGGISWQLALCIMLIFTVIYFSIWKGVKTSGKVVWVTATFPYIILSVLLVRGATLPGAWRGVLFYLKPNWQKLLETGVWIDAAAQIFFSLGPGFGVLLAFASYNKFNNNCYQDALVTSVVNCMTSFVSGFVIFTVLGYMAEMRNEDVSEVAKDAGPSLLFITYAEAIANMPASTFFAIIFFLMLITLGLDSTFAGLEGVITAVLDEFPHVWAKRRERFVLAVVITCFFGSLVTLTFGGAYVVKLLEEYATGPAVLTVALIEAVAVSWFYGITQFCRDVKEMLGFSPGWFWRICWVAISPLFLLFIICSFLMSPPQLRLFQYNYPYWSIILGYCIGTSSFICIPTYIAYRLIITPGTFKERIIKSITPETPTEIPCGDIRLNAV

`CCNC(CC)C(=O)c1ccccc1` (centres unmarked) [NEB, N-ethyl-buphedrone] showed an IC50 against hSERT of 51.2 µM. Also, the CC50 at 24 h in data set [1] was determined as 6240 µM. Also, in the data set with Swiss CD-1 mice, the “HLA (total distance traveled in 60 min) vs saline” value is reported as “significant effect”, the “duration of the significant increase in locomotor activity” value turned out to be 15 min and the “shape of the dose response of HLA” value is given as “ceiling effect”.

Consider `CCNC(C)C(=O)c1ccccc1` (centres unmarked) [NEC, N-ethyl-cathinone], for which the IC50 against hSERT is over 100 µM. Moreover, the CC50 at 24 h in data set [1] is 3970 µM. Also, the “shape of the dose response of HLA” value with Swiss CD-1 mice was “dose–response relationship”.

As for `CCCCC(NCC)C(=O)c1ccccc1` (centres unmarked) [NEH, N-ethyl-hexedrone], the IC50 at hSERT was over 100 µM. In addition, the CC50 at 24 h in data set [1] worked out at 3280 µM. Moreover, in the data set on Swiss CD-1 mice, the “shape of the dose response of HLA” value was “dose–response relationship”.

Regarding `CCCCCC(NCC)C(=O)c1ccccc1` (centres unmarked) [NEHP, N-ethyl-heptedrone], at hSERT, the IC50 is over 100 µM. Besides, in data set [1], the CC50 at 24 h was 1260 µM. In the data set with Swiss CD-1 mice (10 mg/kg i.p., 60 min session), the “time at which the locomotor effect ended” value is under 60 min. For the same compound, the “shape of the dose response of HLA” value in the data set with Swiss CD-1 mice was “dose–response relationship”.

In the case of `CCCC(NCC)C(=O)c1ccccc1` (centres unmarked) [NEPD, N-ethyl-pentedrone], the IC50 against hSERT turned out to be 76.4 µM. In addition, in data set [1], the CC50 at 24 h is 3820 µM. In the data set on Swiss CD-1 mice, the “HLA (total distance traveled in 60 min) vs saline” value was “significant effect”, the “duration of the significant increase in locomotor activity” value is given as 40 min and the “shape of the dose response of HLA” value is on record as “ceiling effect”.

For orientation: IC50 means the concentration that gives 50% inhibition. A high value points to weaker potency in that assay.
